Reference: US12459890B2, “Salt and crystal form of compound having agonistic activity to S1P5 receptor” (ONO PHARMACEUTICAL CO., LTD., priority 2019, dated 2025)

Assays:
[1] = Chemical stability test (residual rate by HPLC after storage); format: physicochemical; settings: vs sample stored at −20° C.
Method: Stability of the salts and/or crystal forms of the present invention was studied under the storage conditions of Condition 1 or Condition 2. After storage, the residual rate (%) of the stored sample under each condition was calculated by HPLC based on the area percentage of the sample stored at −20° C.
• Condition 1 60° C.: 1 month: pulverized • Condition 2 80° C.: 1 week: unpulverized
Comparison object of each sample was stored at −20° C.

[2] = target: human S1P1 (EDG-1) (Homo sapiens, UniProt P21453); assay: S1P receptor agonist activity by monitoring intracellular calcium concentration (S1P1); format: cell-based; settings: CHO cells overexpressing human S1P1, intracellular calcium, S1P = 100%
Method: (§1) Chinese hamster ovary (CHO) cells in which human S1P1 (EDG-1) or human S1P5 (EDG-8) genes were overexpressed were cultured in Ham's F-12 medium containing 10% FBS (fetal bovine serum), penicillin/streptomycin, and geneticin (0.25 mg/mL). The medium was changed one day before the calcium assay was performed and on the day of the assay. Four hours after medium exchange, medium was removed and washed once with phosphate buffered saline. 0.05% Trypsin EDTA was added thereto to exfoliate the cells, and then a medium was added to recover the cells. The collected cell suspension was centrifuged to remove the supernatant, and suspended in phosphate buffered saline to count the number of cells. The cells were suspended in a Hanks solution containing Calcium 6 Assay Reagent (manufactured by Molecular Devices), 20 mM HEPES and 2.5 mM Probenecid so as to be 1.1×10^6 cells/mL, and incubated at 37° C. for about 1 hour. Thereafter, the supernatant was removed by centrifugation, and the cells were suspended in a Hanks solution containing 20 mM HEPES, 2.5 mM Probenecid and 0.1% BSA so as to be 2.2×10^6 cells/mL. The suspension was seeded in a 96 well plate at 80 μL/well. A plate was set in a fluorescent drug screening system (FDSS6000), Compound I or a comparative compound, and S1P were sequentially added, and an increase in intracellular calcium concentration before and after addition was measured at an excitation wavelength of 480 nm and a fluorescence wavelength of 540 nm. The increase in intracellular calcium concentration was evaluated by signal intensity at a fluorescence wavelength, and the agonist activity of each compound was calculated with the signal intensity when S1P was added instead of the compound as 100% activity.

[3] = target: human S1P5 (EDG-8) (Homo sapiens, UniProt Q9H228); assay: S1P receptor agonist activity by monitoring intracellular calcium concentration (S1P5); format: cell-based; settings: for S1P5 receptor agonist activity: CHO cells overexpressing human S1P5, intracellular calcium, S1P = 100%; for balance of S1P5 receptor agonist activity with respect to S1P1 receptor (selectivity): comparison of agonist activities on S1P1 and S1P5
Method: as §1

[4] = Measurement of clearance in rats; format: in vivo, rat; settings: male SD rats, fasted, tail-intravenous administration, plasma
Method: A solution of Compound I was tail-intravenously administered to male SD rats under fasted conditions. After administration, rats were retained by a manual method at regular time intervals, and blood was collected from the jugular vein with sodium heparin.
The blood was centrifuged at 10,000 g, 3 min, 4° C. to obtain plasma. Concentration of Compound I in the plasma was measured by LC/MS/MS. Clearance was calculated from the plasma concentration transition using pharmacokinetic analysis software Phoenix WinNonlin (Certara USA, Inc.).

[5] = system: mouse experimental autoimmune encephalomyelitis model; assay: Effectiveness in mouse experimental autoimmune encephalomyelitis model; format: in vivo; settings: female C57BL/J mice, MOG35-55 immunization, oral once a day for 30 days
Method: Female C57BL/J mice (Charles River Laboratories Japan, Inc., age at start of experiment: 7 or 8 weeks of age) were used. Myelin Oligodendrocyte Glycoprotein [sequence 35-55 […] (AnaSpec, Inc., hereinafter MOG35-55)] was dissolved in physiological saline (Otsuka Pharmaceutical Factory, Inc.) to prepare a 2 mg/mL solution. The 2 mg/mL solution of MOG35-55 and an equal amount of FCA H37Ra (Difco Laboratories) were mixed to prepare an emulsion, and the emulsion was used as an inducing agent. Immunization was performed by subcutaneously administering 0.2 mL of the inducing agent into the mouse flank using a glass syringe equipped with a 26G injection needle. […]
After dividing into groups, administration of a test substance (Compound I), a positive control compound (FTY720; fingolimod), or a vehicle (water for injection) was started on the same day, and each test substance was repetitively orally administered once a day for 30 days from the day before the immunization to day 28 of immunization. The amount of the solution to be administered was calculated based on the individual body weight on the day of administration. […]

[6] = Condition 1: 60° C.: 1 month: pulverized
[7] = Condition 2: 80° C.: 1 week: unpulverized

human S1P1 (EDG-1), sequence (P21453 whole entry): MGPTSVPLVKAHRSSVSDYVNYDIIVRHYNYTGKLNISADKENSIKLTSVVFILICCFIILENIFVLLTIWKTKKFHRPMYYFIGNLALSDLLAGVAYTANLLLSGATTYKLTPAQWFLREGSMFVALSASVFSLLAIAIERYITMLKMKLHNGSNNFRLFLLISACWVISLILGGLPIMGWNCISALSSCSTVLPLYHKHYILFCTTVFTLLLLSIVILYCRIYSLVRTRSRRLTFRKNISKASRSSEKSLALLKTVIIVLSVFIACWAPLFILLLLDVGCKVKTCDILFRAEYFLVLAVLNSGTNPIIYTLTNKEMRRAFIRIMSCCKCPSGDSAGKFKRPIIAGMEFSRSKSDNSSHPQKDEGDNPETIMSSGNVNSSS
human S1P5 (EDG-8), sequence (Q9H228 whole entry): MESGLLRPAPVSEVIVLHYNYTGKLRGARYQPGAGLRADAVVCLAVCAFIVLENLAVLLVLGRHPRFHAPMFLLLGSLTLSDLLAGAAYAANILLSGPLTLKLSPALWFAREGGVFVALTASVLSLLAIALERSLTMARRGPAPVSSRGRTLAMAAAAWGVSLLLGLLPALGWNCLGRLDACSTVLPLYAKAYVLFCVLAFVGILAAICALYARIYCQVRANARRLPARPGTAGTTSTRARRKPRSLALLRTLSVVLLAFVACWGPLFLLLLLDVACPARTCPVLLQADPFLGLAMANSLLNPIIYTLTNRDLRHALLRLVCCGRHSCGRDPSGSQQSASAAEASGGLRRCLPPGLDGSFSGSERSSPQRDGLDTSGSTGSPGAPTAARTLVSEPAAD

Row | SMILES | Residual rate (%) [1, 6] [%] | Residual rate (%) [1, 7] [%] | also measured
1 | C[C@H]1Cc2cc(OCCCC(F)(F)F)ccc2C=C1CN1CC(C(=O)O)C1.O=C(O)c1ccccc1 [Example 9, monobenzoate of 1-[[(3S)-3-methyl-6-(4,4,4-trifluorobutoxy)-3,4-dihydronaphthalen-2-yl]methyl]azetidine-3-carboxylic acid] | 97.9 | – | –
2 | C[C@H]1Cc2cc(OCCCC(F)(F)F)ccc2C=C1CN1CC(C(=O)O)C1.O [Example 8, hydrate of 1-[[(3S)-3-methyl-6-(4,4,4-trifluorobutoxy)-3,4-dihydronaphthalen-2-yl]methyl]azetidine-3-carboxylic acid] | 97.8 | – | –
3 | C[C@H]1Cc2cc(OCCCC(F)(F)F)ccc2C=C1CN1CC(C(=O)O)C1.C[C@H]1Cc2cc(OCCCC(F)(F)F)ccc2C=C1CN1CC(C(=O)O)C1.O=C(O)CCC(=O)O [Example 15, hemisuccinate of 1-[[(3S)-3-methyl-6-(4,4,4-trifluorobutoxy)-3,4-dihydronaphthalen-2-yl]methyl]azetidine-3-carboxylic acid] | – | 99.1 | –
4 | C[C@H]1Cc2cc(OCCCC(F)(F)F)ccc2C=C1CN1CC(C(=O)O)C1.C[C@H]1Cc2cc(OCCCC(F)(F)F)ccc2C=C1CN1CC(C(=O)O)C1.O=S(=O)(O)O [Example 13, hemisulfate of 1-[[(3S)-3-methyl-6-(4,4,4-trifluorobutoxy)-3,4-dihydronaphthalen-2-yl]methyl]azetidine-3-carboxylic acid] | 97.1 | – | –
5 | C[C@H]1Cc2cc(OCCCC(F)(F)F)ccc2C=C1CN1CC(C(=O)O)C1.N[C@@H](Cc1c[nH]c2ccccc12)C(=O)O [Example 14, mono-tryptophan salt of 1-[[(3S)-3-methyl-6-(4,4,4-trifluorobutoxy)-3,4-dihydronaphthalen-2-yl]methyl]azetidine-3-carboxylic acid] | 99.1 | 99.6 | –
6 | COc1ccc2c(c1)C[C@H](C)C(CN1CC(F)(C(=O)O)C1)=C2 [Comparative Example, (S)-3-Fluoro-1-[(6-methoxy-3-methyl-3,4-dihydronaphthalen-2-yl)methyl]azetidine-3-carboxylic acid] | – | – | S1P1 receptor agonist activity [2]: did not have S1P1 and S1P5 receptor agonist activities; S1P5 receptor agonist activity [3]: did not have S1P1 and S1P5 receptor agonist activities
7 | C[C@H]1Cc2cc(OCCCC(F)(F)F)ccc2C=C1CN1CC(C(=O)O)C1.O.O=C(O)c1ccc(O)cc1 [Example 12, hydrate of mono(4-hydroxybenzoate) of 1-[[(3S)-3-methyl-6-(4,4,4-trifluorobutoxy)-3,4-dihydronaphthalen-2-yl]methyl]azetidine-3-carboxylic acid] | 95.3 | – | –
8 | C[C@H]1Cc2cc(OCCCC(F)(F)F)ccc2C=C1CN1CC(C(=O)O)C1.O=C(O)c1ccc(O)cc1 [Example 10, mono(4-hydroxybenzoate) of 1-[[(3S)-3-methyl-6-(4,4,4-trifluorobutoxy)-3,4-dihydronaphthalen-2-yl]methyl]azetidine-3-carboxylic acid] | 99.4 | 99.6 | –
9 | CCCc1ccc(COc2ccc3c(c2)CCC(CN2CC(C(=O)O)C2)=C3C)c(OC)c1 [Comparative Compound B, 1-({6-[(2-methoxy-4-propylbenzyl)oxy]-1-methyl-3,4-dihydro-2-naphthalenyl}methyl)-3-azetidine carboxylic acid] | – | – | S1P1 receptor agonist activity [2]: had both S1P1 and S1P5 receptor agonist activities; S1P5 receptor agonist activity [3]: had both S1P1 and S1P5 receptor agonist activities; balance of S1P5 receptor agonist activity with respect to S1P1 receptor (selectivity) [3]: S1P1 receptor agonist activity being stronger than S1P5 receptor agonist activity
10 | C[C@H]1Cc2cc(OCCCC(F)(F)F)ccc2C=C1CN1CC(C(=O)O)C1.C[C@H]1Cc2cc(OCCCC(F)(F)F)ccc2C=C1CN1CC(C(=O)O)C1.O=C(O)CCCCC(=O)O [Example 16, hemiadipate of 1-[[(3S)-3-methyl-6-(4,4,4-trifluorobutoxy)-3,4-dihydronaphthalen-2-yl]methyl]azetidine-3-carboxylic acid] | – | 95.8 | –
11 | C[C@H]1Cc2cc(OCCCC(F)(F)F)ccc2C=C1CN1CC(C(=O)O)C1 [Example 7, 1-[[(3S)-3-methyl-6-(4,4,4-trifluorobutoxy)-3,4-dihydronaphthalen-2-yl]methyl]azetidine-3-carboxylic acid] | 99.1 | – | –
12 | C[C@H]1Cc2cc(OCCCC(F)(F)F)ccc2C=C1CN1CC(C(=O)O)C1 [Compound I, 1-[[(3S)-3-Methyl-6-(4,4,4-trifluorobutoxy)-3,4-dihydronaphthalen-2-yl]methyl]azetidine-3-carboxylic acid] | – | – | balance of S1P5 receptor agonist activity with respect to S1P1 receptor (selectivity) [3]: selective agonist activity on the S1P5 receptor; Clearance [4]: low clearance; effectiveness in EAE model (neurological symptom score) [5]: shows effectiveness
13 | CCCCCCCCOc1ccc2c(c1)CCC(CN1CC(C(=O)O)C1)=C2C.Cl [Comparative Compound A, 1-{[1-methyl-6-(octyloxy)-3,4-dihydro-2-naphthalenyl]methyl}-3-azetidine carboxylic acid hydrochloride] | – | – | S1P1 receptor agonist activity [2]: had both S1P1 and S1P5 receptor agonist activities; S1P5 receptor agonist activity [3]: had both S1P1 and S1P5 receptor agonist activities; balance of S1P5 receptor agonist activity with respect to S1P1 receptor (selectivity) [3]: S1P1 receptor agonist activity being stronger than S1P5 receptor agonist activity
